Results published in patent US6723741B2, “Benzimidazoles and benzothiazoles and uses thereof” (Synaptic Pharmaceutical Corporation, priority 1996, dated 2004).
Where two headings read alike, the source gives them in different places.

Experiments:
[1] = target: T1, human α2B adrenergic receptor (Homo sapiens, UniProt P18089); experiment: Radioligand binding assay, [3H]rauwolscine competition
T1 construct: expressed in transfected cells
T1 sequence (P18089 1-450): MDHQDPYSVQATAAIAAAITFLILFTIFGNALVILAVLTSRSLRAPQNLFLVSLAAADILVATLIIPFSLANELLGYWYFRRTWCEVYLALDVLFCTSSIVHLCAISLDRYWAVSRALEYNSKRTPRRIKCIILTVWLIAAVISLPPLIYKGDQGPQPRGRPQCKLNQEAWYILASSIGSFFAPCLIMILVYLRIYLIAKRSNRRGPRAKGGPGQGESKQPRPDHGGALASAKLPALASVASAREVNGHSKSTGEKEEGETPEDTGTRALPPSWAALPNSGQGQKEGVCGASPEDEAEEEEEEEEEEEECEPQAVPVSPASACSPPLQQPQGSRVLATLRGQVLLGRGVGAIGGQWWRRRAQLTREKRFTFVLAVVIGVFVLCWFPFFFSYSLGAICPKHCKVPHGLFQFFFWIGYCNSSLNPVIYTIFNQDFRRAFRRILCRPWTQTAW

[2] = target: T2, human α2C adrenergic receptor (Homo sapiens, UniProt P18825); experiment: as above
T2 construct: The entire coding region of α2C (1383 bp), including 2 bp of 5′ UT and 400 bp of 3′ UT; expressed in transfected cells
T2 sequence (P18825 1-462): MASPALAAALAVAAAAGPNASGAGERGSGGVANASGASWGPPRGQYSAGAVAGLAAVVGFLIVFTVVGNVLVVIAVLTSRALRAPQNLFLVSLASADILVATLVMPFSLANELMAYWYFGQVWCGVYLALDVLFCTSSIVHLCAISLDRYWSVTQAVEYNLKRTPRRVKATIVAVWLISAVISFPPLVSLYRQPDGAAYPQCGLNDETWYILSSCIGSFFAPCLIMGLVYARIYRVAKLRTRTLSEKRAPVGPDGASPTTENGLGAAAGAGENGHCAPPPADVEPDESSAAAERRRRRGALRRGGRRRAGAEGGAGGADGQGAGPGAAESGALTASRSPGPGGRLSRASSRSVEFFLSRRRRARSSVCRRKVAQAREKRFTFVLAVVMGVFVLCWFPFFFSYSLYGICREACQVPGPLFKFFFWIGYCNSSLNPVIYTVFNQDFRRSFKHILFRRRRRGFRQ

[3] = target: T2, human α2C adrenergic receptor; experiment: Agonist activity: inhibition of forskolin-stimulated cAMP synthesis; type: cell-based; conditions: for EC50: inhibition of forskolin-stimulated cAMP, stably transfected cells expressing human α2C, read-out: pEC50 Alpha-2 C (converted); for I.A (Intrinsic Activity) Alpha-2 C: maximum activity relative to maximum activity induced by norepinephrine, human α2C
[4] = target: T3, human α2A adrenergic receptor (Homo sapiens, UniProt P08913); experiment: Radioligand binding assay, [3H]rauwolscine competition; design: expressed in transfected cells
T3 sequence (P08913 1-465): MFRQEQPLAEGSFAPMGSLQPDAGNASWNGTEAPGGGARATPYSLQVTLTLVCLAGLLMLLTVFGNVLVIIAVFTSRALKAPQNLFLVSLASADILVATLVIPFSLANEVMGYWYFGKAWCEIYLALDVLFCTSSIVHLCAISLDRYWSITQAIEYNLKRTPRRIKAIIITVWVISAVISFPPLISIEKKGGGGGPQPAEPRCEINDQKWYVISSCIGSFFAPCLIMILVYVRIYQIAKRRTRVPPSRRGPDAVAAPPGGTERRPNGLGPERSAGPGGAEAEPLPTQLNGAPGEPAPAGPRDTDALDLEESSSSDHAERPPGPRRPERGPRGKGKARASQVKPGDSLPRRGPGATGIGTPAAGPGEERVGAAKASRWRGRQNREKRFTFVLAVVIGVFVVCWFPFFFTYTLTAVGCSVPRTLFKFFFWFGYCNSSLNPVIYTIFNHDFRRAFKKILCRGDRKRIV

[5] = target: T4, human α1B adrenergic receptor (Homo sapiens, UniProt P35368); experiment: Radioligand binding assay, [3H]prazosin competition
T4 construct: The entire coding region of α1B (1563 bp); expressed in transfected cells
T4 sequence (P35368 1-520): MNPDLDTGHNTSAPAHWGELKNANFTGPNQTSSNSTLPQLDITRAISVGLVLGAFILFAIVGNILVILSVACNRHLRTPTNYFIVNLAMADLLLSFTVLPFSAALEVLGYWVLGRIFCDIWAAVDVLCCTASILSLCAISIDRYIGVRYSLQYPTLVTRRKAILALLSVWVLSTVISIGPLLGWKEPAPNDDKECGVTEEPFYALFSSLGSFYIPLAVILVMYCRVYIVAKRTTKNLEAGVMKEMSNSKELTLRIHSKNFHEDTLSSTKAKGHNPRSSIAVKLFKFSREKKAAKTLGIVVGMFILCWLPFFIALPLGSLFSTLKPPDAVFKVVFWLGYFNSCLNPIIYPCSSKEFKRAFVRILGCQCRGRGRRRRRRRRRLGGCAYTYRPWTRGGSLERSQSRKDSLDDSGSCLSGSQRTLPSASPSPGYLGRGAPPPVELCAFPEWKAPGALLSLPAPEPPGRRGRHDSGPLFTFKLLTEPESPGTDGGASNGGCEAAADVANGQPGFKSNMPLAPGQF

[6] = target: T1, human α2B adrenergic receptor; experiment: Agonist activity: inhibition of forskolin-stimulated cAMP synthesis; type: cell-based; conditions: for I.A (Intrinsic Activity) Alpha-2 B: maximum activity relative to maximum activity induced by norepinephrine, human α2B
[7] = target: T3, human α2A adrenergic receptor; experiment: as above; conditions: for I.A (Intrinsic Activity) Alpha-2 A: maximum activity relative to maximum activity induced by norepinephrine, human α2A
[8] = cloned human α1B, LM(tk-) cell membranes, [3H]prazosin, read-out: pKi Alpha-1 B (converted)
[9] = inhibition of forskolin-stimulated cAMP, stably transfected cells expressing human α2B, read-out: pEC50 Alpha-2 B (converted)

Row | Structure (SMILES) | Ki [1] [nM] | Ki [2] [nM] | EC50 [3] [nM] | I.A (Intrinsic Activity) Alpha-2 C [3] | Ki [4] [nM] | Ki [5, 8] [nM] | EC50 [6, 9] [nM] | I.A (Intrinsic Activity) Alpha-2 B [6] | EC50 [7] [nM] | I.A (Intrinsic Activity) Alpha-2 A [7] | Ki [5] [nM] | EC50 [6] [nM] | Ki ([1]; cloned human α2B, Y-1 cell membranes, [3H]rauwolscine, read-out: pKi Alpha-2 B (converted)) [nM] | Ki ([4]; cloned human α2A, LM(tk-) cell membranes, [3H]rauwolscine, read-out: pKi Alpha-2 A (converted)) [nM]
1 | Brc1cc(NC2=NCCN2)cc2cc[nH]c12 [Example 2, 7-Bromo-5-(2-imidazolin-2-ylamino)indole] | 2.88 | 12.9 | 0.407 | 1.00 | 0.724 | 26.9 | 1.91 | 0.75 | 0.437 | 0.46 | – | – | – | –
2 | N#Cc1cc(NC2=NCCN2)cc2cc[nH]c12 [Example 5, 7-Cyano-5-(2-imidazolin-2-ylamino)indole] | 15.5 | 43.7 | 0.589 | 1.00 | – | 12600 | 316 | 0.60 | – | – | – | – | – | –
3 | CC(=O)c1cc(NC2=NCCN2)cc2cc[nH]c12 [Example 6, 7-Acetyl-5-(2-imidazolin-2-ylamino)indole] | 45.7 | 117 | 40.7 | 0.90 | – | 56.2 | 81.3 | 0.70 | – | – | – | – | – | –
4 | c1nc2cc(NC3=NCCN3)ccc2s1 [Example 13, 5-(2-Imidazolin-2-ylamino)benzothiazole] | 4.57 | 20.4 | 0.603 | 1.00 | 3.72 | 708 | 10.2 | 0.82 | 12.3 | 0.98 | – | – | – | –
5 | c1nc2ccc(NC3=NCCN3)cc2s1 [Example 14, 6-(2-Imidazolin-2-ylamino)benzothiazole] | 14.1 | – | – | 1.00 | – | – | – | 0.47 | – | 0.51 | 3630 | 14.1 | – | –
6 | c1nc2ccc(NC3=NCCS3)cc2s1 [Example 15, 6-(2-Thiazolin-2-ylamino)benzothiazole] | – | – | – | 0.88 | – | – | 138 | 0.57 | 3090 | 0.58 | 7240 | – | 162 | 115
